The values below come from US5648367A, “Aminoalkyloximes” (Hoechst Marion Roussel, Inc., priority 1995, dated 1997).

Structures are written as SMILES. Counter-ions that a name gives are not always drawn.

This assay relates to Serotonin Reuptake. The assay is described as follows: in vitro inhibition of serotonin uptake ([3H]-5HT uptake into whole rat brain synaptosomes). Type of assay: biochemical, rat (Male CR Wistar rats). The note with it: rat whole brain (minus cerebellum) synaptosomes; 50 nM [3H]-5HT; 5 minutes at 37° C.; pH 7.4; log probit analysis. The procedure: See, for example, W. K. Goodman, et al., Archives of General Psychiatry, 47, 577 (1990). […] In this assay, a modification of the tests described by A. S. Horn and R. C. A. M. Trace, British Journal of Pharmacology, 51, 399 (1974), A. Nagy and A. V. Delgado-Escueta, Journal of Neurochemistry, 43, 1114 (1984) and P. R. Dunkley, et al., Brain Research, 372, 115 (1986), the following reagents are prepared and employed:
Male CR Wistar rats (100-125 g)
3. Sucrose solution: 0.32M sucrose containing 5 mM HEPES and 0.1 mM EDTA; pH to 7.3 using Tris base.
4. A 0.1 mM stock solution of serotonin creatinine SO4 is made up in 0.01N HCl. This is used to dilute the specific activity of radiolabeled 5HT.
5. 5-[1,2-^3 H(N)]-Hydroxytryptamine creatinine sulfate (serotonin), specific activity 20-30 Ci/mmol, is used. The final desired concentration of [^3 H]-5HT in the assay is 50 nM. The dilution factor is 0.8. The KHBB is made up to contain 62.5 nM of [^3 H]-5HT.
6. For most assays, a 0.5 mM stock solution of the test compound is made up initially in either 10 μl of glacial acetic acid, 100 μl DMSO or 10 μl of the recrystallization solvent, to which is added approximately 10 ml of distilled water. Compounds are initially screened in duplicate at 3 concentrations (10^-8, 10^-7 and 10^-6 M) made up in water. […] To ensure consistency, the standard clomipramine is run with each assay.
Male Wistar rats are decapitated and the brain rapidly removed. Whole brain (minus cerebellum) is weighed and homogenized in 15 volumes of ice cold sucrose solution using a Potter-Elvejhem homogenizer. The following procedures are performed on ice. Homogenization should be done with 4-5 up and down strokes at medium speeds (setting 4.5 to 5) to minimize synaptosome lysis. The homogenate is centrifuged at 1000 g (3000 rpm, Sorvall SS-34 rotor) for 10 minutes at 0°-4° C. The supernatant is removed and approximately 10 ml per tube is carefully layered onto a discontinuous Percoll (Sigma cat# P-1644) gradient: 21% Percoll in sucrose solution at the bottom (15 ml per tube) and 10% Percoll in the middle (10 ml; colored with a few drops of phenol red for visibility).
The Percoil gradient tubes are carefully placed into a Beckman SW-28 swinging bucket rotor and spun in a Beckman XL90 ultracentrifuge using the following program: speed, 11,000 rpm (15,000 g) for 30 minutes at 4° C.; slow acceleration and deceleration (acceleration setting 9; deceleration setting 3). Tubes are carefully removed, and the top layer and the top part of the middle (red) layers are discarded using a pasteur pipette. The synaptosomes are located in the white fluffy band at the interface between the 10% and 21% Percoll layers. This is carefully removed, placed in a centrifuge tube, diluted with KHBB and spun at 21,000 g (13,000 rpm, Sorvall SS-34 rotor). The pellet (synaptosomes) is resuspended in KHBB (10 vol per gram original brain wet weight; 1 brain minus cerebellum weighs approximately 1.2 g; 2.5 brains are needed per typical assay).
20 μl Vehicle or appropriate drug
200 μl of the tissue suspension are added to each of 24 tubes (at a time) containing the 20 μl of vehicle or drug on ice. Three minutes later, 800 μl of KHBB containing [^3 H]-5HT are added, and tubes are vortexed. The rack containing the 24 tubes is moved from the ice bath to a water bath set at 37° C. The tubes are incubated for 5 minutes under 95% oxygen/5% carbon dioxide. Uptake is terminated by filtration through GF/B filter strips using a Brandel cell harvester (filter strips are presoaked in ice cold filtration buffer). Tubes are washed once with 5 ml of ice cold filtration buffer. Filter disks are placed in scintillation vials to which are added 10 ml of scintillation fluid (EcoScint). Filters are allowed to sit overnight before being counted.
For each assay, 3 tubes are incubated with 20 μl of vehicle at both 37° C. and 0° C.
With `NCCON=C(CCCn1ccnc1)c1ccc(Cl)cc1` [1-(4-Chlorophenyl)-4-(1-(1H)-imidazolyl)-1-butanone O-(2-aminoethyl)oxime dihydrochloride], it took 160 nM to reach half-maximal inhibition (IC50). With `NCCON=C(CCCn1ccnc1)c1ccc(F)cc1` [1-(4-Fluorophenyl)-4-(1-(1H)-imidazolyl)-1-butanone O-(2-aminoethyl)oxime dihydrochloride] the figure was 257 nM. To `NCCON=C(CCn1ccnc1)c1ccc(C(F)(F)F)cc1` [3-(1-(1H)-Imidazolyl)-1-(4-trifluoromethylphenyl)-1-propanone O-(2-aminoethyl)oxime dihydrochloride] belongs 164 nM; to `NCCON=C(CCn1ccnc1)c1ccc(Cl)cc1` [4'-Chloro-3-(1-(1H)-imidazolyl)propiophenone O-(2-aminoethyl)oxime difumarate], 128 nM; to `COc1ccc(C(CCn2ccnc2)=NOCCN)cc1` [4'-Methoxy-3-(1-(1H)-imidazolyl)propiophenone O-(2-aminoethyl)oxime difumarate hydrate], 1280 nM. To `NCCON=C(CCCn1ccnc1)c1ccc(C(F)(F)F)cc1` [4-(1-(1H)-Imidazolyl)-1-(4-trifluoromethylphenyl)-1-butanone O-(2-aminoethyl)oxime dihydrochloride] belongs 80 nM; to `NCCON=C(CCCn1ccnc1)c1ccccc1` [4-(1-(1H)-Imidazolyl)-1-phenyl-1-butanone O-(2-aminoethyl)oxime dihydrochloride], 1810 nM. `Cc1nccn1CCCC(=NOCCN)c1ccccc1` [4-(2-Methyl-1-(1H)-imidazolyl)-1-phenyl-1-butanone O-(2-aminoethyl)oxime dihydrochloride] returned an IC50 of 656 nM.
